# Results taken from patent US20250346575A1, “ISOINDOLINONE DERIVATIVE HAVING GLUTARIMIDE MOTHER NUCLEUS, AND USE THEREOF” (KOREA RESEARCH INSTITUTE OF CHEMICAL TECHNOLOGY, priority 2021, published 2025).
# System: Cancer cells (KG-1)
# Assay: Cytotoxicity assay, WST-1, KG-1
# Type: cell-based
# Settings: for IC50: Homo sapiens, KG-1 cells, 72 hours, WST-1; for cytotoxic activity against KG-1 and NCI-H1155 cancer cells (in words): R1 bicyclic heteroaryl compared to monocyclic aryl (comparative substance) or heteroaryl (Compounds 37 and 38)
# Method: To evaluate the effect of the compounds of the present disclosure on cancer cells, a cytotoxicity assay was conducted as follows.
# Cancer cells (KG-1) were seeded at a concentration of 10,000 cells per well into a 96-well plate. Then, the cells were treated with predetermined concentrations of compounds of the Examples and comparative substances (comparative compounds 1, 2, 3). After 72 hours, the cells were incubated with WST-1 reagent for one hour. Then, absorbance was measured at 450 nm using a spectramax spectrophotometer to assess the degree of cancer cell apoptosis. The IC50 (μM) values were calculated using the measured values with the GraphPad Prism program and the measurements are summarized in Table 1.
SMILES,IC50 [µM],cytotoxic activity against KG-1 and NCI-H1155 cancer cells (in words)
"O=C1CCC(N2Cc3cc(CNC(=O)c4ccc5cc(Cl)ccc5n4)ccc3C2=O)C(=O)N1 (stereo not drawn) [Comparative Compound 3, 6-Chloro-N-((2-(2,6-dioxopiperidin-3-yl)-1-oxoisoindolin-5-yl)methyl)quinoline-2-carboxamide, reference compound]",10 to 50,
"O=C1CCC(N2Cc3cc(CNC(=O)c4ccccc4)ccc3C2=O)C(=O)N1 (stereo not drawn) [Comparative substance, reference compound]",10 to 50,
"O=C1CCC(N2Cc3cc(CNC(=O)c4n[nH]c5cc(Cl)ccc45)ccc3C2=O)C(=O)N1 (stereo not drawn) [Compound 1, 6-Chloro-N-((2-(2,6-dioxopiperidin-3-yl)-1-oxoisoindolin-5-yl)methyl)-1H-indazole-3-carboxamide]",0.0001 to 0.01,
"O=C1CCC(N2Cc3cc(CNC(=O)c4cc(-c5ccc(Cl)cc5)n[nH]4)ccc3C2=O)C(=O)N1 (stereo not drawn) [Compound 2, 3-(4-Chlorophenyl)-N-((2-(2,6-dioxopiperidin-3-yl)-1-oxoisoindolin-5-yl)methyl)-1H-pyrazole-5-carboxamide]",0.0001 to 0.01,
"O=C1CCC(N2Cc3cc(CNC(=O)c4nc5cc(Cl)ccc5[nH]4)ccc3C2=O)C(=O)N1 (stereo not drawn) [Compound 3, 5-Chloro-N-((2-(2,6-dioxopiperidin-3-yl)-1-oxoisoindolin-5-yl)methyl)-1H-benzo[d]imidazole-2-carboxamide]",,more potent cytotoxic activity
"O=C1CCC(N2Cc3cc(CNC(=O)c4n[nH]c5cc(Cl)c(Cl)cc45)ccc3C2=O)C(=O)N1 (stereo not drawn) [Compound 4, 5,6-Dichloro-N-((2-(2,6-dioxopiperidin-3-yl)-1-oxoisoindolin-5-yl)methyl)-1H-indazole-3-carboxamide]",0.0001 to 0.01,
"O=C1CCC(N2Cc3cc(CNC(=O)c4cc(-c5cccc(Cl)c5)n[nH]4)ccc3C2=O)C(=O)N1 (stereo not drawn) [Compound 5, 3-(3-Chlorophenyl)-N-((2-(2,6-dioxopiperidin-3-yl)-1-oxoisoindolin-5-yl)methyl)-1H-pyrazole-5-carboxamide]",0.0001 to 0.01,
"O=C1CCC(N2Cc3cc(CNC(=O)c4c[nH]c5cc(Cl)ccc45)ccc3C2=O)C(=O)N1 (stereo not drawn) [Compound 6, 6-chloro-N-((2-(2,6-dioxopiperidin-3-yl)-1-oxoisoindolin-5-yl)methyl)-1H-indole-3-carboxamide]",0.01 to 1,
"O=C1CCC(N2Cc3cc(CNC(=O)c4c[nH]c5ccc(Cl)cc45)ccc3C2=O)C(=O)N1 (stereo not drawn) [Compound 7, 5-Chloro-N-((2-(2,6-dioxopiperidin-3-yl)-1-oxoisoindolin-5-yl)methyl)-1H-indole-3-carboxamide]",0.01 to 1,more potent cytotoxic activity
"O=C1CCC(N2Cc3cc(CNC(=O)c4n[nH]c5ccc(Cl)cc45)ccc3C2=O)C(=O)N1 (stereo not drawn) [Compound 8, 5-Chloro-N-((2-(2,6-dioxopiperidin-3-yl)-1-oxoisoindolin-5-yl)methyl)-1H-indazole-3-carboxamide]",0.01 to 1,
"O=C1CCC(N2Cc3cc(CNC(=O)c4cc5ccc(Cl)cc5[nH]4)ccc3C2=O)C(=O)N1 (stereo not drawn) [Compound 9, 6-chloro-N-((2-(2,6-dioxopiperidin-3-yl)-1-oxoisoindolin-5-yl)methyl)-1H-indole-2-carboxamide]",0.01 to 1,
"O=C1CCC(N2Cc3cc(CNC(=O)c4cc(-c5ccc(Cl)cc5)on4)ccc3C2=O)C(=O)N1 (stereo not drawn) [Compound 11, 5-(4-Chlorophenyl)-N-((2-(2,6-dioxopiperidin-3-yl)-1-oxoisoindolin-5-yl)methyl)isoxazole-3-carboxamide]",0.0001 to 0.01,
"O=C1CCC(N2Cc3cc(CNC(=O)c4cc(-c5cccc(Cl)c5)c[nH]4)ccc3C2=O)C(=O)N1 (stereo not drawn) [Compound 14, 4-(3-Chlorophenyl)-N-((2-(2,6-dioxopiperidin-3-yl)-1-oxoisoindolin-5-yl)methyl)-1H-pyrrole-2-carboxamide]",0.0001 to 0.01,
"O=C1CCC(N2Cc3cc(CNC(=O)c4cn(-c5cccc(Cl)c5)nn4)ccc3C2=O)C(=O)N1 (stereo not drawn) [Compound 15, 1-(3-chlorophenyl)-N-((2-(2,6-dioxopiperidin-3-yl)-1-oxoisoindolin-5-yl)methyl)-1H-1,2,3-triazole-4-carboxamide]",0.0001 to 0.01,
